Measured values reported in US10889555B2, “Sulfonamide compound or salt thereof” (Taiho Pharmaceutical Co., Ltd., priority 2016, dated 2021).
Like-named read-outs stand apart in the source and are kept apart here.

Tests used:
[1] = system: HCC 1806 cells; assay: Cell proliferation inhibitory effect on human breast cancer cell line (crystal violet, 72 hours); type: cell-based; details: Homo sapiens, HCC1806, 72 h, read-out: Cell growth suppression IC50
Procedure, shortened: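 Cells were seeded at 2,000/well in RPMI-1640 with 10% FBS and grown 1 day, then exposed to compound for 72 h at 37° C, 5% CO2. After glutaraldehyde fixation and 0.05% crystal violet staining, extracted dye was read at 540 nm. IC50 (μM) came from growth inhibition relative to untreated and cell-free wells.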

[2] = molecular target: Human RNR (human M1 subunit and human M2 subunit) (Homo sapiens (Human), UniProt P23921); assay: Human RNR inhibition effect (formation of dCDP from CDP, HPLC); type: biochemical
Sequence of Human RNR (human M1 subunit and human M2 subunit) (P23921 whole entry): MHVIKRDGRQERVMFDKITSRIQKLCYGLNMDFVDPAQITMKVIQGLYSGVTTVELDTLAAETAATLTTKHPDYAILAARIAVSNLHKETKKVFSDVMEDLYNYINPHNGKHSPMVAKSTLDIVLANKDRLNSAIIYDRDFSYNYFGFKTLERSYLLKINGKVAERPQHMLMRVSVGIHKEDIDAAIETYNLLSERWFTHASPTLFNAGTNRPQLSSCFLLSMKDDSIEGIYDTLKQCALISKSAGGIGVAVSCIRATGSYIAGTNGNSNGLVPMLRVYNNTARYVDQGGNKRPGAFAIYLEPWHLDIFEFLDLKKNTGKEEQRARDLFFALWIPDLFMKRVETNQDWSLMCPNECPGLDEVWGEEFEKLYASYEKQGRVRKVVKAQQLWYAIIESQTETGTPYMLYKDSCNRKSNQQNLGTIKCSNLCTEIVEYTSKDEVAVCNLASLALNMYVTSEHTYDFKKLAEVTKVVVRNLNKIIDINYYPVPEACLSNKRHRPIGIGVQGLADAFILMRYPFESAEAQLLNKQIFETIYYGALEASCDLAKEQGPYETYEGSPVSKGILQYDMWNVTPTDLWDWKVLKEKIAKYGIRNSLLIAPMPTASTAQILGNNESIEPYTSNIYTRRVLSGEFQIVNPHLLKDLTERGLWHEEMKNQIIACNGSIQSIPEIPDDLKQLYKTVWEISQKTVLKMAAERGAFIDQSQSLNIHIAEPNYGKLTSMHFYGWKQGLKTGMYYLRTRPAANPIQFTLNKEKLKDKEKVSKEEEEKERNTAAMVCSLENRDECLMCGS
Experimental: The inhibitory activity against the ribonucleotide reduction reaction (hereinafter referred to as RNR reaction) of the test compound was determined by measuring the formation of deoxycytidine diphosphate (hereinafter referred to as dCDP) from cytidine diphosphate (hereinafter referred to as CDP) by the following method.
Human M1 subunit and human M2 subunit (mutant lacking amino terminal 59 amino acids), which are fused a histidine tag at the amino terminus, are overexpressed in Escherichia coli and are solubilized after collection, and histidine tagged human M1 and M2 proteins were purified on a nickel chelate column.
First, test compounds were serially diluted with DMSO. Next, human M1 protein and human M2 protein were added to an aqueous albumin solution derived from 0.02% fetal bovine serum, a DMSO solution of the compound of the present invention or the control DMSO solution (final concentration of DMSO was 1%) was added, and the mixture was allowed to stand for 20 minutes. Thereafter, the reaction buffer [50 mM HEPES buffer (pH 7.2) at the final concentration, 4 mM magnesium acetate at the final concentration, 100 mM potassium chloride at the final concentration, 6 mM dithiothreitol at the final concentration, 2 mM adenosine triphosphate at the final concentration, 0.24 mM nicotinamide adenine dinucleotide phosphate at final concentration] and 10 μM CDP at the final concentration were added and incubated at 37° C. for 30 minutes to perform RNR reaction. Immediately after the reaction, the reaction was stopped by heating at 100° C. for 15 minutes, followed by centrifugation at 10,000 rpm for 10 minutes. After the centrifugation, a portion (5 μL) of the resulting supernatant was analyzed with a high performance liquid chromatography (Shimadzu Corporation, Prominence) using Shim-pack XR-ODS (manufactured by Shimadzu GLC Co., 3.0×100 mm).

[3] = system: various cancer cell lines as described in Table 21; assay: Cell proliferation inhibitory effect on human cancer-derived cancer cell lines (method of Test Example 2); type: cell-based
Experimental: Human derived breast cancer cell line HCC 1806 cells were daily passaged at a cell density not exceeding 80% in ATCC recommended Roswell Park Memorial Institute medium (RPMI-1640) containing 10% fetal bovine serum (FBS). In order to start the test of cell proliferation inhibitory activity, HCC 1806 cells were suspended in the above medium, after seeing at 180 μL in each well of a 96-well flat bottom plate so that the number of cells per well was 2,000, the cells were cultured at 37° C. for 1 day in an incubator containing 5% carbon dioxide gas. On the next day, the test compound was dissolved in DMSO, and 20 μL of a drug additive solution diluted serially with distilled water to 10 times of the final concentration was added to each well of the culture plate of the cells, and the cells were cultured at 37° C. for 72 hours in an incubator containing 5% carbon dioxide gas. After culturing for 72 hours, 20 μL of glutaraldehyde was added to each well and allowed to stand for 30 minutes, then the plate was washed 10 times with water and was dried. 100 μL of a stain solution (0.05% crystal violet in a 20% methanol solution) was added to each well and allowed to stand for 30 minutes, then the plate was washed 10 times with water and was dried. 100 μL of an extract solution (0.1 N NaH2PO4: 100% ethanol=1:1) was added to each well and mixed, and the mixture was measured at a wavelength of 540 nm using a plate reader (MTP-450 manufactured by Corona Electric Co., Ltd.). The growth inhibition rate was calculated from the following formula, and the concentration (IC50 (μM)) of a test compound inhibiting 50% was determined. Growth inhibition rate (%)={(C−B)−(T−B)}/(C−B)×100
According to the method of Test Example 2, the cell proliferation inhibitory effect on various cancer cell lines as described in Table 21 was evaluated.

[4] = human M1 and M2 subunits, formation of dCDP from CDP, read-out: RNR Enzyme inhibitory activity IC50
[5] = A673, Ewing's sarcoma, 2000 cell/well, read-out: cell proliferation inhibitory effect, A673
[6] = A2780, Ovarian Cancer, 2000 cell/well, read-out: cell proliferation inhibitory effect, A2780
[7] = ACHN, Kidney Cancer, 2000 cell/well, read-out: cell proliferation inhibitory effect, ACHN
[8] = CFPAC-1, Pancreatic Cancer, 2000 cell/well, read-out: cell proliferation inhibitory effect, CFPAC-1
[9] = DU-145, DU145, Prostate Cancer, 5000 cell/well, read-out: cell proliferation inhibitory effect, DU145
[10] = GB-1, Glioblastoma, 3000 cell/well, read-out: cell proliferation inhibitory effect, GB-1
[11] = HCT-116, HCT116, Colorectal Cancer, 1000 cell/well, read-out: cell proliferation inhibitory effect, HCT116
[12] = HLE, Liver Cancer, 3000 cell/well, read-out: cell proliferation inhibitory effect, HLE
[13] = MSTO-211H, Mesothelioma, 6000 cell/well, read-out: cell proliferation inhibitory effect, MSTO-211H
[14] = NCI-H460, Lung Cancer, 1000 cell/well, read-out: cell proliferation inhibitory effect, NCI-H460
[15] = NCI-H2170, Lung Cancer, 5000 cell/well, read-out: cell proliferation inhibitory effect, NCI-H2170
[16] = NCI-H2228, Lung Cancer, 5000 cell/well, read-out: cell proliferation inhibitory effect, NCI-H2228
[17] = NUGC-3, Stomach Cancer, 2000 cell/well, read-out: cell proliferation inhibitory effect, NUGC-3
[18] = RPMI7932, Melanoma, 4000 cell/well, read-out: cell proliferation inhibitory effect, RPMI7932

| Structure (SMILES) | IC50 [1] [nM] | IC50 [2, 4] [nM] | IC50 ([2]; human M1 and M2 proteins, 10 μM CDP, 37° C. for 30 minutes, read-out: IC50 (concentration inhibiting the RNR reaction by 50%)) [nM] | IC50 [3, 5] [nM] | IC50 [3, 6] [nM] | IC50 [3, 7] [nM] | IC50 [3, 8] [nM] | IC50 [3, 9] [nM] | IC50 [3, 10] [nM] | IC50 [3, 11] [nM] | IC50 [3, 12] [nM] | IC50 [3, 13] [nM] | IC50 [3, 14] [nM] | IC50 [3, 15] [nM] | IC50 [3, 16] [nM] | IC50 [3, 17] [nM] | IC50 [3, 18] [nM] |
| --- | --- | --- | --- | --- | --- | --- | --- | --- | --- | --- | --- | --- | --- | --- | --- | --- | --- |
| Cc1ccc(F)c([C@@H](C)[C@H](NS(=O)(=O)c2ccc(C(F)(F)F)c3c2OCCC3(C)O)c2n[nH]c(=O)o2)c1C (single isomer, unassigned) [Example 225A] | 600 | 120 | – | – | – | – | – | – | – | – | – | – | – | – | – | – | – |
| Cc1c(Cl)ccc(F)c1[C@@H](C)[C@H](NS(=O)(=O)c1ccc(Cl)cc1C(N)=O)c1n[nH]c(=O)o1 [Example 14, 5-chloro-2-(N-((1S,2R)-2-(3 chloro-6-fluoro-2-methylphenyl)-1-(5oxo-4,5-dihydro-1,3,4-oxadiazol-2-yl)propyl)sulfamoyl)benzamide] | 560 | – | – | 1850 | 1710 | 980 | 1420 | 2220 | 4600 | 2200 | 1300 | 1580 | 1350 | 4180 | 3530 | 2830 | 3210 |
| COc1cc(Cl)ccc1S(=O)(=O)N[C@H](c1n[nH]c(=O)o1)[C@H](C)c1c(F)ccc(-c2ccn(C)n2)c1C [Example 305, 4-chloro-N-((1S,2R)-2-(6-fluoro-2-methyl-3-(1-methyl-1H-pyrazol-3-yl)phenyl)-1-(5-oxo-4,5-dihydro-1,3,4-oxadiazol-2-yl)propyl)-2-methoxybenzenesulfonamide] | – | 240 | – | – | – | – | – | – | – | – | – | – | – | – | – | – | – |

Now from value to compound:

| IC50 [1] [nM] | IC50 [2, 4] [nM] | IC50 ([2]; human M1 and M2 proteins, 10 μM CDP, 37° C. for 30 minutes, read-out: IC50 (concentration inhibiting the RNR reaction by 50%)) [nM] | IC50 [3, 5] [nM] | IC50 [3, 6] [nM] | IC50 [3, 7] [nM] | IC50 [3, 8] [nM] | IC50 [3, 9] [nM] | IC50 [3, 10] [nM] | IC50 [3, 11] [nM] | IC50 [3, 12] [nM] | IC50 [3, 13] [nM] | IC50 [3, 14] [nM] | IC50 [3, 15] [nM] | IC50 [3, 16] [nM] | IC50 [3, 17] [nM] | IC50 [3, 18] [nM] | Structure (SMILES) |
| --- | --- | --- | --- | --- | --- | --- | --- | --- | --- | --- | --- | --- | --- | --- | --- | --- | --- |
| – | – | 43000 | – | – | – | – | – | – | – | – | – | – | – | – | – | – | Cc1ccc(S(=O)(=O)NC(Cc2ccccc2)c2nnc(S)o2)cc1 (stereo not shown) [Comparative Example 1, reference compound] |
| 640 | – | – | 2560 | 2080 | 1500 | 1710 | 1840 | 5220 | 2300 | 1740 | 1540 | 1500 | 3900 | 3210 | 3110 | 4740 | CCc1ccc(F)c([C@@H](C)[C@H](NS(=O)(=O)c2ccc(Cl)cc2C(N)=O)c2n[nH]c(=O)o2)c1C [Example 11, 5-chloro-2-(N-((1S,2R)-2-(3-ethyl-6-fluoro-2-methylphenyl)-1-(5-oxo-4,5-dihydro-1,3,4-oxadiazol-2-yl)propyl)sulfamoyl)benzamide] |
